This data set in a line: solvent given as SMILES.

This is an account of results in the Deep4Chem optical property database.

For the molecule `CC(C)CCCCN1CCc2c1ccc1c3c(ccc21)C(=O)CCC3`, the emission maximum was 433 nm (in C1CCCCC1); 489 nm (in CC#N); 512 nm (in CC(C)O); 481 nm (in CCC(C)=O); 522 nm (in CCO); 467 nm (in CCOC(C)=O). The emission maximum reads like this: (in CS(C)=O) 472 nm; (in Cc1ccccc1) 452 nm; (in ClCCl) 472 nm; (in Clc1ccccc1) 462 nm.
Turning to `c1ccc(-c2nc(-c3ccccc3)nc(-c3ccc(-n4c5ccccc5c5cc(-n6c7ccccc7c7ccccc76)ccc54)c4c5ccccc5n(-c5ccccc5)c34)n2)cc1`, the emission maximum by setting is: (in C1CCOC1) 496.59 nm; (in Cc1ccccc1) 429 nm; (in ClCCl) 531.36 nm.
As to `COc1ccc2c3c(cccc13)C(=O)c1ccccc1-2`, the emission maximum amounted to 526.87 nm (in CC#N); 520.02 nm (in CC(C)=O); 541.13 nm (in CC(C)O); 487.09 nm (in CCCCOCCCC); 506.07 nm (in CCOC(C)=O); 498.01 nm (in CCOCC). Further, the emission maximum is on record as 560.85 nm (in CO); 500 nm (in Cc1ccccc1); 507.87 nm (in Clc1ccccc1); 520.02 nm (in N#Cc1ccccc1); 520.02 nm (in O=C1CCCCC1).
`CC1=CC(C)=[N+]2C1=C(c1ccc(C(=O)OC3C[C@@H]4CC[C@]3(C)C4(C)C)cc1)c1c(C)cc(C)n1[B-]2(F)F` (stereo not given in full) displayed an emission maximum (in Cc1ccccc1) of 518 nm.
As for `O=C1c2ccccc2-c2cc3ccccc3c(=O)n21`, the emission maximum by setting is: (in CC#N) 443 nm; (in CO) 445 nm; (in CS(C)=O) 455 nm; (in ClC(Cl)Cl) 445 nm.
Turning to `CC(C)(C)c1cc(/C2=C3\C=CC(=N3)/C(c3ccc(Br)cc3)=c3/cc/c([nH]3)=C(\c3ccc(Br)cc3)C3=N/C(=C(/c4cc(C(C)(C)C)cc(C(C)(C)C)c4)c4cc2c[nH]4)C=C3)cc(C(C)(C)C)c1`, where the note is “in CC(=O)N(C)C”, the emission maximum stood at 716 nm.
`COC(=O)c1ccc(C2=C3C=c4sc(-c5cccs5)cc4=[N+]3[B-](F)(F)n3c2cc2sc(-c4cccs4)cc23)cc1`: for the setting “in ClCCl”, the emission maximum is recorded as 716 nm.
Turning to `Cc1cc(C2=C(c3cc(C)sc3C)P(=O)(c3ccccc3)c3ccccc32)c(C)s1` (stereo not given), the emission maximum (in C1CCOC1) worked out at 468 nm.
For the setting “in ClC(Cl)Cl”, `CC(C)(C)c1ccc2c(c1)oc1nc3oc4ccc(-n5c6ccccc6c6ccccc65)cc4c3cc12` showed an emission maximum of 417 nm.
The molecule `Cc1cc(C)c(C2=C3C=C(/C=C/C(=O)OCc4ccccc4)C=[N+]3[B-](F)(F)n3cccc32)c(C)c1` returned an emission maximum (in ClCCl) of 568 nm.
Molecule `CCCCCCn1c2c(c3cc(-c4ccc5ccc6cccc7ccc4c5c67)ccc31)-c1c(c3cc(-c4ccc5ccc6cccc7ccc4c5c67)ccc3n1CCCCCC)-c1c(c3cc(-c4ccc5ccc6cccc7ccc4c5c67)ccc3n1CCCCCC)-c1c-2c2cc(-c3ccc4ccc5cccc6ccc3c4c56)ccc2n1CCCCCC` displayed an emission maximum (in ClCCl) of 382 nm.
On the same count and under the same terms, the same measure for `c1ccc(N(c2ccccc2)c2ccc(-n3ccc4cc(-c5cccc6c5-c5ccccc5C6(c5ccccc5)c5ccccc5)ccc43)cc2)cc1`: 381 nm.
Consider `COc1cc2c3c4c(c5ccc(C(C)(C)C)cc5c5cc(C(C)(C)C)cc(c2c(OC)c1OC)c45)=[N+]1C3=Nc2c3c4cc(OC)c(OC)c(OC)c4c4cc(C(C)(C)C)cc5c6cc(C(C)(C)C)ccc6c(c3c54)n2[B-]1(F)F`, for which the emission maximum (in Cc1ccccc1) is recorded as 832 nm.
As for `Cc1cc(O)c(C(=O)/C=C/c2cccc(O)c2)c(=O)o1`, the emission maximum is, setting by setting: (in CC#N) 523 nm; (in ClCCl) 491 nm.
`COc1cc(-c2cnc(-c3cnc4ccccc4c3)o2)cc(OC)c1OC` showed an emission maximum (in ClCCl) of 458 nm.
As for `O=c1[nH]c(=O)n([C@@H]2O[C@H](CO)[C@@H](O)[C@H]2O)c2ccsc12`, the emission maximum is, setting by setting: (in CC#N) 344 nm; (in CCOC(C)=O) 345 nm; (in CO) 350 nm; (in O) 351 nm.
On to `COc1ccc(-c2cc3c(s2)c(-c2ccccc2)cc(=O)n3C)cc1`, for which the emission maximum turned out to be 435 nm (in CC#N) and 437 nm (in ClCCl).
Take `c1cc2c3c(cccc3c1)NC(c1ccc3ccc4cccc5ccc1c3c45)N2`: the emission maximum reads like this: (in CC#N) 458 nm; (in CO) 450 nm; (in CS(C)=O) 420 nm; (in Cc1ccccc1) 502 nm.
As to `COc1ccc(/C=C/c2cc(/C=C/c3ccc(OC)cc3)nc(/C=C/c3ccc(C(F)(F)F)cc3)n2)cc1`, the emission maximum came to 436 nm (in C1CCOC1); 463 nm (in CC#N); 452 nm (in CC(C)=O); 398 nm (in CCCCCCC); 475 nm (in CS(C)=O); 411 nm (in Cc1ccccc1). Where the note is “in ClCCl”, this molecule gave an emission maximum of 441 nm.
In turn, `Cn1c(=O)c(/N=N/c2cc(S(=O)(=O)O)ccc2S(=O)(=O)O)c(O)c2ccccc21` returned an emission maximum (in C1CCOC1) of 498 nm; an emission maximum (in CC(C)=O) of 491 nm; an emission maximum (in CCOC(C)=O) of 493 nm; an emission maximum (in CO) of 483 nm; an emission maximum (in CS(C)=O) of 490 nm; an emission maximum (in Cc1ccccc1) of 490 nm. Also, the emission maximum reads like this: (in ClCCl) 493 nm; (in O) 500 nm.
On to `CC(C)c1cccc(C(C)C)c1N1C(=O)c2ccc3c4c(-c5ccc(C(=O)O)cc5)c5ccc6c7c(cc8c9cc(C(=O)O)ccc9c(c9ccc(c2c39)C1=O)c4c8c57)C(=O)N(c1c(C(C)C)cccc1C(C)C)C6=O`, for which, for the setting “in ClCCl”, the emission maximum is listed as 626 nm.
Consider `CCCCCCCC1=C(C)C(=O)n2c1cc1[nH]c(C(=O)OC)c(C)c1c2=O`, for which the emission maximum is, setting by setting: (in C1CCCCC1) 448 nm; (in CO) 500 nm; (in CS(C)=O) 482 nm; (in ClC(Cl)Cl) 448 nm; (in c1ccccc1) 441 nm.
`CC(C)(C)Nc1c(-c2ccc(-c3cc(=O)cc(-c4ccccc4)o3)cc2)nc2ccccn12`: the emission maximum (in ClCCl) worked out at 515 nm.
Molecule `CCCCN1C(=O)c2cccc3c(N(C)C)ccc(c23)C1=O` came in with an emission maximum (in Cc1ccccc1) of 486 nm.
Regarding `N#Cc1nc2cnc(N)nc2n1Cc1ccccc1`, the emission maximum is, setting by setting: (in C1COCCO1) 381 nm; (in CC#N) 381 nm; (in CO) 398 nm; (in ClCCl) 381 nm; (in O) 406 nm.
`F[B-]1(F)OC(c2ccccc2)=CC(c2ccccc2)=[O+]1`: the emission maximum (in CC#N) is reported as 398 nm and the emission maximum (in ClC(Cl)(Cl)Cl) is recorded as 389 nm.
`CC(C)c1cccc(C(C)C)c1-n1c(=O)c2cc3nc(-c4ccccc4)c4cc5c(=O)n(-c6c(C(C)C)cccc6C(C)C)c(=O)c6cc7c(-c8ccccc8)nc8cc(c1=O)c2c1c3c4c(c56)c7c81` came in with an emission maximum (in ClC(Cl)Cl) of 488 nm.
As for `Cn1nc(-c2ccccc2)c2nc3cc(Cl)ccc3nc21`, the emission maximum by setting is: (in C1CCCCC1) 487 nm; (in C1CCOC1) 519 nm; (in CC#N) 540 nm.
Regarding `C(#Cc1cccs1)C(C#Cc1cccs1)=Cc1ccc(C=C(C#Cc2cccs2)C#Cc2cccs2)cc1`, for the setting “in ClC(Cl)Cl”, the emission maximum is 498 nm.
Regarding `c1ccc2c(c1)Oc1ccccc1B2c1ccc(N2c3ccccc3Oc3ccccc32)cc1`, the emission maximum (in Cc1ccccc1) is 522 nm.
Regarding `COC(=O)c1cc2c(cc3ccc4cccc5ccc2c3c45)[nH]1`, for the setting “in C1CCOC1”, the emission maximum was determined as 404 nm.
In turn, `Fc1ccc(-c2cccc3ncc(-c4ccccc4)n23)cc1` had an emission maximum (in ClCCl) of 469 nm.
Regarding `CC1(C)c2ccccc2N(c2ccc3c(c2)c(=O)c2cccc4c(=O)c5cc(N6c7ccccc7C(C)(C)c7ccccc76)ccc5n3c24)c2ccccc21`, the emission maximum (in Cc1ccccc1) stood at 549.35 nm.
`C(#Cc1c(C#Cc2cccs2)c(C#Cc2cccs2)c(C#Cc2cccs2)c(C#Cc2cccs2)c1C#Cc1cccs1)c1cccs1`: the emission maximum (in ClCCl) worked out at 453 nm.
`CCN(CC)c1ccc(/C=C2\CC/C(=C\c3ccc(N(c4ccc(/C=C5\CC/C(=C\c6ccc(N(CC)CC)cc6)C5=C(C#N)C#N)cc4)c4ccc(/C=C5\CC/C(=C\c6ccc(N(CC)CC)cc6)C5=C(C#N)C#N)cc4)cc3)C2=C(C#N)C#N)cc1` showed an emission maximum (in CN(C)C=O) of 720 nm.
Regarding `COc1ccc2c3ccc(OC)cc3n(-c3ccc(-c4nnc(-c5c(C)cc(C)cc5C)o4)cc3C)c2c1`, the emission maximum (in Cc1ccccc1) worked out at 436 nm.
As to `CC(C)(C)c1ccc2c(c1)sc1[n+]2[B-](F)(F)n2c(c3cccc4cccc2c43)=N1`, the emission maximum reads like this: (in C1CCOC1) 504 nm; (in CC#N) 502 nm; (in CCCCCC) 504 nm; (in Cc1ccccc1) 506 nm; (in ClCCl) 534 nm.
Regarding `C[Si]1(C)O[Si](C)(C)c2cc3c(-c4ccc(F)cc4)c4ccccc4nc3cc21`, the emission maximum (in ClCCl) was 503 nm.
As to `COc1ccc(-c2ccc3c(c2)c2cc(-c4ccc(OC)cc4)ccc2n3-c2ccc(C(=O)c3ccc4sc5ccccc5c4c3)cc2)cc1`, the emission maximum amounted to 460.87 nm (in Cc1ccccc1) and 462 nm (in c1cc(-n2c3ccccc3c3ccccc32)cc(-n2c3ccccc3c3ccccc32)c1).
`[C-]#[N+]c1ccc(-c2ccc(NC)cc2)cc1` yielded an emission maximum (in C1CCCCC1) of 368 nm; an emission maximum (in C1CCOC1) of 406 nm; an emission maximum (in C1COCCO1) of 395 nm; an emission maximum (in CC#N) of 421 nm; an emission maximum (in CC(C)=O) of 427 nm; an emission maximum (in CCCCCC) of 366 nm. Further, the emission maximum runs as follows: (in CCOC(C)=O) 403 nm; (in CN(C)C=O) 435 nm; (in CO) 422 nm; (in CS(C)=O) 436 nm; (in Cc1ccccc1) 388 nm; (in ClC(Cl)Cl) 400 nm. In addition, the emission maximum is, setting by setting: (in ClCCl) 405 nm; (in O) 458 nm; (in c1ccncc1) 421 nm.
